This is an account of results in ChEMBL document CHEMBL4428112, “Columnaristerol A, a novel 19-norsterol from the Formosan octocoral Nephthea columnaris” (Bioorg Med Chem Lett, 2016).

Holding throughout (type): functional, cell-based
Experiment [1] concerns K562. As to the kind of experiment: Cytotoxicity against human K562 cells assessed as growth inhibition after 72 hrs by MTT assay. As to conditions: K562, 72 h. Background: Formazan colour is commonly taken as a measure of viable cells.
Experiment [2] has as its system SUP-T1. As to the kind of experiment: Cytotoxicity against human SupT1 cells assessed as growth inhibition after 72 hrs by MTT assay. As to conditions: SUP-T1, 72 h.
For experiment [3], the system named is U-937. The experiment is described as follows: Cytotoxicity against human U937 cells assessed as growth inhibition after 72 hrs by MTT assay. As to conditions: U-937, 72 h.
The test system of experiment [4] is MOLT-4. As to the kind of experiment: Cytotoxicity against human MOLT4 cells assessed as growth inhibition after 72 hrs by MTT assay. As to conditions: MOLT-4, 72 h.
In experiment [5] the test system is K562. As to the kind of experiment: Cytotoxicity against human K562 cells assessed as growth inhibition at 20 ug/ml after 72 hrs by MTT assay.
In experiment [6] the test system is U-937. The experiment is described as follows: Cytotoxicity against human U937 cells assessed as growth inhibition at 20 ug/ml after 72 hrs by MTT assay.

The term IC50 denotes the concentration that gives 50% inhibition.

Activity calls are given as the source filed them. No cut-off for these calls is given here.

For `COc1cccc2c1C(=O)c1c(O)c3c(c(O)c1C2=O)C[C@@](O)(C(=O)CO)C[C@@H]3O[C@H]1C[C@H](N)[C@H](O)[C@H](C)O1` [DOXORUBICIN], the IC50 in experiment [1] was 280 nM; in experiment [2], 40 nM; in experiment [3], 420 nM.
In the case of `C=C(CC[C@@H](C)[C@H]1CC[C@H]2[C@@H]3CC=C4C[C@@H](O)CC[C@]4(O)[C@H]3CC[C@]12C)C(C)C`, the IC50 is 18300 nM in experiment [4] and 25500 nM in experiment [2]. The “growth inhibition (GI)” value in experiment [5] and in experiment [6] was “inactive” in each case.
